For the assay, the target named is T1, human serum albumin (HSA) (Homo sapiens, UniProt P02768).
T1 construct: gene ALB
As to the kind of experiment: fluorescence titration (one-site fit), Job's plot […], site-marker displacement. It counts as binding.

T1 sequence (P02768 25-609): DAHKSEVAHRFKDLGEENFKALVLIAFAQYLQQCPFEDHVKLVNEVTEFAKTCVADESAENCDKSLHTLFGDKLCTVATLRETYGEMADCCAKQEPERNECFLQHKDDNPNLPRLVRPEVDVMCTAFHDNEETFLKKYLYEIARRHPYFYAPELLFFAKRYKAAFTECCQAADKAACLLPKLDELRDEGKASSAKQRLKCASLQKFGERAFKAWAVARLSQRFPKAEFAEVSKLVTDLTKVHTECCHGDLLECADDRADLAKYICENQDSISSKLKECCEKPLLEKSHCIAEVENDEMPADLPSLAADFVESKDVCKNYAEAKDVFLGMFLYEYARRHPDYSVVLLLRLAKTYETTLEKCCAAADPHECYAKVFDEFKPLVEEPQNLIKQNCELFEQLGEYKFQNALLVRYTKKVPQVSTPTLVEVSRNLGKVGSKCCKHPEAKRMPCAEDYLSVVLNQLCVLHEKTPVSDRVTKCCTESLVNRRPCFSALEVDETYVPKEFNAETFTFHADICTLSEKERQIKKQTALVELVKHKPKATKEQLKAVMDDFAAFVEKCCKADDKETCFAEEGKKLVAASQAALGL

The term Kd denotes the constant that tells how readily two partners part at equilibrium. The low end stands for a tighter complex, the high end for a looser complex. In turn, `CCN(CC)c1ccc(-c2cc3c(s2)c(C(=O)O)cc(=O)n3C)cc1` [compound 4, KF 4] gave an equilibrium dissociation constant (Kd) of 5.4 µM.

The values are drawn from article PMC6928863, “Development of Human Serum Albumin Selective Fluorescent Probe Using Thieno[3,2-b]pyridine-5(4H)-one Fluorophore Derivatives” (Sensors (Basel, Switzerland), 2019).
